Data published in ChEMBL document CHEMBL1155182, “Diphenylmethylene hydroxamic acids as selective class IIa histone deacetylase inhibitors” (Bioorg Med Chem Lett, 2009).

Tests used:
Histone deacetylase 4 = Histone deacetylase 4 (Homo sapiens, UniProt P56524)
Description: Inhibition of human recombinant N-terminal FLAG-tagged HDAC4 (612-1034) expressed in baculovirus after 10 mins by fluorimetric analysis

Histone deacetylase 7 = target: T1, Histone deacetylase 7 (Homo sapiens, UniProt Q8WUI4)
T1 sequence (Q8WUI4 whole entry): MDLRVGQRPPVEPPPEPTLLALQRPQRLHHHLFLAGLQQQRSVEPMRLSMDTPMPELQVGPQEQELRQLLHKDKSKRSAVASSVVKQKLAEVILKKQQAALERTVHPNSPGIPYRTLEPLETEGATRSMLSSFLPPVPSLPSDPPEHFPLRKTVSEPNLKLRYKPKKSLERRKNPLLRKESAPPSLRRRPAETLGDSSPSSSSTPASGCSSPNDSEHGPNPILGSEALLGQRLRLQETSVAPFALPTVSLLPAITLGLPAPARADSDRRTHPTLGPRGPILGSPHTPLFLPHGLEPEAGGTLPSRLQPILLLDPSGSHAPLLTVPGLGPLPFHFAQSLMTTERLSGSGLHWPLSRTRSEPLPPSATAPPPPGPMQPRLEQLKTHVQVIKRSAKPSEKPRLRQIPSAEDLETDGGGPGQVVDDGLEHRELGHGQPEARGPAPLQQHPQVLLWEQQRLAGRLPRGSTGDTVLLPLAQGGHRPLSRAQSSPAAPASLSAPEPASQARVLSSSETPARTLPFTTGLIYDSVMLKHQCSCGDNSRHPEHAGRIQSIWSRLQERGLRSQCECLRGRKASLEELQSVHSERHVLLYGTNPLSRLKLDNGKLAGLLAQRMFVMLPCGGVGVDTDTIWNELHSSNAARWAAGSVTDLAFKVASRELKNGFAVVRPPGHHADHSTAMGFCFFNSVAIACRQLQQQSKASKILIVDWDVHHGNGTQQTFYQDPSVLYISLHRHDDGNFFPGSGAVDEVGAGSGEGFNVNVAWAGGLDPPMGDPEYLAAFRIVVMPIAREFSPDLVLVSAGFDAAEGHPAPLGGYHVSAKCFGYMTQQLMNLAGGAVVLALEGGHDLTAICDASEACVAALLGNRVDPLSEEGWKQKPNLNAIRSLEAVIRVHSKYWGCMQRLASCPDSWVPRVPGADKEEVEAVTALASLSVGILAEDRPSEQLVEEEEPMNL
Description: Inhibition of human recombinant N-terminal FLAG-tagged HDAC7 (438-915) expressed in baculovirus after 10 mins by fluorimetric analysis

Histone deacetylase 5 = Histone deacetylase 5 (Homo sapiens, UniProt Q9UQL6)
Description: Inhibition of human recombinant N-terminal FLAG-tagged HDAC5 (620-1122) expressed in baculovirus after 10 mins by fluorimetric analysis

Histone deacetylase [1] = details: hek-293t
Description: Inhibition of class 2a HDAC in HEK293T cells after 16 hrs by whole cell assay

Histone deacetylase [2] = details: hek-293t; remark: listed apart in the source
Description: Inhibition of class 1 HDAC in HEK293T cells after 16 hrs by whole cell assay

Chain of Histone deacetylase 4 (P56524 whole entry): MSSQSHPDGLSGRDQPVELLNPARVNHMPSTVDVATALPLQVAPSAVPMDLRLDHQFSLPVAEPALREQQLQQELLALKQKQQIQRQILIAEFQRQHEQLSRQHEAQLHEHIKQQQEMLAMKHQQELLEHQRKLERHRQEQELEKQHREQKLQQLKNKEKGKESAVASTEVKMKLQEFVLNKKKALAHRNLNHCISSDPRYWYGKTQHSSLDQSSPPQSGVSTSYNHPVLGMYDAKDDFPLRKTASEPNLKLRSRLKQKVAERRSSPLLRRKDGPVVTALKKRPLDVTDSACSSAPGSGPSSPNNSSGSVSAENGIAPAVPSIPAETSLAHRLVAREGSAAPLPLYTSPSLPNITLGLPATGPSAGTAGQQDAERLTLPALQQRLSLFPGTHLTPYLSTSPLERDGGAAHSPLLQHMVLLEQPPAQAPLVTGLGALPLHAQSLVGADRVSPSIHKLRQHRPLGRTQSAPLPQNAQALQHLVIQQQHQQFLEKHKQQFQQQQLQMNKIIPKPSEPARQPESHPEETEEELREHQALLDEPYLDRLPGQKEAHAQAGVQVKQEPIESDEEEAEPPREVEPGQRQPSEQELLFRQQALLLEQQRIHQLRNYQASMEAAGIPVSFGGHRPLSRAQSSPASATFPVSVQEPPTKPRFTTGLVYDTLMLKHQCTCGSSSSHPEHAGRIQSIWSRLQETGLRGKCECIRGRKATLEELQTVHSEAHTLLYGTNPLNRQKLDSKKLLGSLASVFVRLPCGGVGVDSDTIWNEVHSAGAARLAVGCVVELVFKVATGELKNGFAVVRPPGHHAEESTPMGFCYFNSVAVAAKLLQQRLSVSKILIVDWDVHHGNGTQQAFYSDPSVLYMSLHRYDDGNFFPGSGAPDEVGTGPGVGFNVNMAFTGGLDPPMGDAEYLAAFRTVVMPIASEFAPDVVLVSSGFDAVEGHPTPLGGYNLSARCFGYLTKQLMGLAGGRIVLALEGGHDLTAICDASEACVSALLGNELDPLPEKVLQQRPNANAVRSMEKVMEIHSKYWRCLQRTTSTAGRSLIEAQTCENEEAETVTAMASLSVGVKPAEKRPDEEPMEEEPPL
Chain of Histone deacetylase 5 (Q9UQL6 whole entry): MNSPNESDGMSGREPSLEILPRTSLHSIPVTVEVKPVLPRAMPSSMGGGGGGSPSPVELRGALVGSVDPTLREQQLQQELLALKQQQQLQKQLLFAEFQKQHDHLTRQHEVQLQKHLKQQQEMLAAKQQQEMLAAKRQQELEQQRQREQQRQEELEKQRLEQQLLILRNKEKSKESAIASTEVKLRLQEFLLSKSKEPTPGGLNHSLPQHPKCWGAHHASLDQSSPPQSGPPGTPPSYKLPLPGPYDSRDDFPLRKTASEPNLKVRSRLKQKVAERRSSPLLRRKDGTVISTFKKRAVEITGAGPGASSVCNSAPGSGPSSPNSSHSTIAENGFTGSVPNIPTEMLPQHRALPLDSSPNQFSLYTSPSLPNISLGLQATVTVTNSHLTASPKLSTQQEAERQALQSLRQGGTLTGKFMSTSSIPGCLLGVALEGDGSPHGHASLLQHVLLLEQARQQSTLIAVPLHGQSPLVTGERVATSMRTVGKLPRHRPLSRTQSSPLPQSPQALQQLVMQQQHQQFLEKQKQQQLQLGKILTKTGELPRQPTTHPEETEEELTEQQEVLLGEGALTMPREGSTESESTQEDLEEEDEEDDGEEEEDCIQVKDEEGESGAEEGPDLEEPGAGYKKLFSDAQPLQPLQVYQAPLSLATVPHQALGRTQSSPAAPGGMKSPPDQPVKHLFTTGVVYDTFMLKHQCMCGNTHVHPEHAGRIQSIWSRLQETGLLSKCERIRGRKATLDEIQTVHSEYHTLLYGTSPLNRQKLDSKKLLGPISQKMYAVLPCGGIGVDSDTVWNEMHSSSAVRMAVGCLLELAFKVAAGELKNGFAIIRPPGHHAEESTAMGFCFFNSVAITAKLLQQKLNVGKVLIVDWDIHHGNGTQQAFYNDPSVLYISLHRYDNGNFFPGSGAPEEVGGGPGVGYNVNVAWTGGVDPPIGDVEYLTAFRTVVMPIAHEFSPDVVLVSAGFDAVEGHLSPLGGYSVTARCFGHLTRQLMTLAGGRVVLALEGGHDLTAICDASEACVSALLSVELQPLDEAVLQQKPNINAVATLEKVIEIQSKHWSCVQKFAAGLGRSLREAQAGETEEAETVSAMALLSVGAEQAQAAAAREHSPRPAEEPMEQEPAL

Work on `O=C(NO)C(c1ccc(F)cc1)c1ccc(F)cc1` yielded an IC50 (Histone deacetylase 4) of 1100 nM, an IC50 (Histone deacetylase 7) of 1760 nM and an IC50 (Histone deacetylase 5) of 280 nM. The IC50 (Histone deacetylase [1]) was 3500 nM and the IC50 (Histone deacetylase [2]) was greater than 50000 nM.
Compound `O=C(NO)C(c1cccc(F)c1)c1cccc(F)c1` has an IC50 (Histone deacetylase 4) of 700 nM and an IC50 (Histone deacetylase 5) of 90 nM.
With `O=C(CC(c1ccccc1)c1ccccc1)NO` the IC50 (Histone deacetylase 4) was greater than 10000 nM, the IC50 (Histone deacetylase 7) was greater than 10000 nM and the IC50 (Histone deacetylase 5) was greater than 10000 nM.
`O=C(NO)C(c1ccc(Cl)cc1)c1ccc(Cl)cc1` was tested, and the IC50 (Histone deacetylase 4) was 960 nM, the IC50 (Histone deacetylase 7) was 1400 nM and the IC50 (Histone deacetylase 5) was 210 nM.
`CN1c2ccccc2C(C(=O)NO)c2ccccc21` showed an IC50 (Histone deacetylase 4) of 1910 nM and an IC50 (Histone deacetylase 5) of 470 nM.
For `CS(=O)(=O)Nc1ccc(C(C(=O)NO)c2ccc(NS(C)(=O)=O)cc2)cc1`, the IC50 (Histone deacetylase 4) was greater than 10000 nM, the IC50 (Histone deacetylase 7) was greater than 10000 nM and the IC50 (Histone deacetylase 5) was greater than 10000 nM. The IC50 (Histone deacetylase [1]) was greater than 50000 nM and the IC50 (Histone deacetylase [2]) was greater than 50000 nM.
Work on `O=C(NO)C(c1ccc2c(c1)CCO2)c1ccc2c(c1)CCO2` yielded an IC50 (Histone deacetylase 4) of 210 nM, an IC50 (Histone deacetylase 7) of 110 nM and an IC50 (Histone deacetylase 5) of 110 nM. For the same compound, the IC50 (Histone deacetylase [1]) was 900 nM and the IC50 (Histone deacetylase [2]) was greater than 50000 nM.
With `CC(C(=O)NO)(c1ccccc1)c1ccccc1` the IC50 (Histone deacetylase 4) was 4500 nM, the IC50 (Histone deacetylase 7) was 4800 nM and the IC50 (Histone deacetylase 5) was 1200 nM. For the same compound, the IC50 (Histone deacetylase [1]) was 16000 nM and the IC50 (Histone deacetylase [2]) was greater than 50000 nM.
`CC(C(=O)NO)c1ccccc1` (stereo not drawn) gave an IC50 (Histone deacetylase 4) greater than 10000 nM, an IC50 (Histone deacetylase 7) greater than 10000 nM and an IC50 (Histone deacetylase 5) greater than 10000 nM.
`O=C(NO)C(Cc1ccccc1)c1ccccc1` (stereo not drawn) showed an IC50 (Histone deacetylase 4) greater than 10000 nM, an IC50 (Histone deacetylase 7) greater than 10000 nM and an IC50 (Histone deacetylase 5) greater than 10000 nM.
With `O=C(NO)C1c2ccccc2Cc2ccccc21` the IC50 (Histone deacetylase 4) was 2320 nM and the IC50 (Histone deacetylase 5) was 1460 nM.
